Reference: PMC10553830, “Functional and structural analyses reveal that a dual domain sialidase protects bacteria from complement killing through desialylation of complement factors” (PLOS Pathogens, 2023)

Tests used:
PG0352 [1] = biological target: T1, PG0352 (Porphyromonas gingivalis, UniProt Q7MX62); experiment: X-ray crystal structure, […] Å (soaked); type: binding; settings: 10 mM soak, 20 min; sialidase active site; sialidase inhibitor
T1 construct: gene PG_0352; N-terminal His6, residues 31-526 (CBM 31-176 plus sialidase domain 177-523), signal peptide removed, codon-optimized, pQE80L, E. coli BL21-Star (DE3); monomer, ~52 kDa by SEC

PG0352 [2] = biological target: T1, PG0352; experiment: X-ray crystal structure, […] Å (soaked); type: binding; settings: 27 mM soak, 60 min; sialidase active site; alpha anomer
PG0352 [3] = biological target: T1, PG0352; experiment: X-ray crystal structure, […] Å (co-crystallized); type: binding; settings: 5 mM ligand; bound in CBM cleft, not the active site
[4] = tested on: CC(=O)N[C@H]1[C@H]([C@H](O)[C@H](O)CO)O[C@@](Oc2ccc3c(C)cc(=O)oc3c2)(C(=O)O)C[C@@H]1O; experiment: purified protein; settings: 10 mM sodium citrate, pH 5.0, 37 °C, 1 min, 5 nM enzyme
[5] = tested on: Cc1cc(=O)oc2cc(O[C@@]3(C(=O)O)C[C@H](O)[C@@H](NC(=O)CO)[C@H]([C@H](O)[C@H](O)CO)O3)ccc12; experiment: purified protein; settings: 10 mM sodium citrate, pH 5.0, 37 °C, 1 min, 5 nM enzyme

T1 sequence (Q7MX62 entry or part of it): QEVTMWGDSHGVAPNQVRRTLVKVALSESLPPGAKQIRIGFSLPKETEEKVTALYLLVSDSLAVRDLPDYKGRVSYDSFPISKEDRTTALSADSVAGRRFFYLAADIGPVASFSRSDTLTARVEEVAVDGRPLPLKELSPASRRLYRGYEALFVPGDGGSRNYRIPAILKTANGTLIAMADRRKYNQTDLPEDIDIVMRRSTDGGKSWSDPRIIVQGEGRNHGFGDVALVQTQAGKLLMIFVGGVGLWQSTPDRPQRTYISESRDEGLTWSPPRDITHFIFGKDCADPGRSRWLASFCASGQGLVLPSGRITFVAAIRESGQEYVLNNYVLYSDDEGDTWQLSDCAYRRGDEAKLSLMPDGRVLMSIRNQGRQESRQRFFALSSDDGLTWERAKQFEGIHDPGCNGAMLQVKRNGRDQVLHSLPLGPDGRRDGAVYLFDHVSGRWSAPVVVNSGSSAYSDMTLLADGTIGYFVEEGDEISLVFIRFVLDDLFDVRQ

Question: With `CC(=O)N[C@H]1[C@H]([C@H](O)[C@H](O)CO)OC(C(=O)O)=C[C@@H]1O` [DANA] as the compound, how does the “X-ray crystal structure, 2.14 Å (soaked)” value (PG0352 [1]) read?
Answer: DANA binds within the sialidase active site in a similar conformation

Question: How did the “X-ray crystal structure, 1.93 Å (soaked)” value (PG0352 [2]) turn out when `CC(=O)N[C@H]1[C@H]([C@H](O)[C@H](O)CO)OC(O)(C(=O)O)C[C@@H]1O` (some centres unmarked) [Neu5Ac] was run?
Answer: Clear electron density was visible for Neu5Ac bound in its alpha anomeric form

Question: For `OCC1(O)OC[C@@H](O)[C@@H](O)[C@@H]1O` (some centres unmarked) [fructose], which “X-ray crystal structure, 2.29 Å (co-crystallized)” value (PG0352 [3]) is on record?
Answer: we co-crystallized PG0352 with fructose and determined the structure of the complex

Question: With PG0352 (Porphyromonas gingivalis W83) as the compound, how does the Km [4] read?
Answer: 39.31 ± 6.540 µM

Question: What about the Km [5] of the same compound?
Answer: 81.65 ± 20.56 µM
